Laboratory results: US20230121313A1 (priority 2019, published 2023)

Test system: patients with treatment-resistant depression (TRD)
Test: Adverse events, phase 2 dose-response study in TRD
Assay type: in vivo, human
Details: for Dissociation, number of participants / Dissociative disorder, % of participants / Dissociative disorder, number of participants / Dizziness, % of participants / Dizziness, number of participants / Dysgeusia, % of participants / Dysgeusia, number of participants / Feeling abnormal, % of participants / Feeling abnormal, number of participants / Headache, % of participants / Headache, number of participants / Hypersomnia, % of participants / Hypersomnia, number of participants / Hypertension, number of participants / Hypoesthesia oral, % of participants / Hypoesthesia oral, number of participants / Insomnia, number of participants / Nasal discomfort, number of participants / Nausea, % of participants / Nausea, number of participants / Oropharyngeal pain, number of participants / Polyuria, number of participants / Sedation, % of participants / Sedation, number of participants / Throat irritation, % of participants / Throat irritation, number of participants / Total with events, % of participants / Total with events, number of participants / Tunnel vision, number of participants / Vertigo, % of participants / Vertigo, number of participants / Vision blurred, number of participants / Dissociation, % of participants / Hypertension, % of participants / Insomnia, % of participants / Nasal discomfort, % of participants / Oropharyngeal pain, % of participants / Polyuria, % of participants / Tunnel vision, % of participants / Vision blurred, % of participants: double-blind
Procedure: Adverse events were monitored throughout the study. Other safety assessments (i.e., laboratory tests, vital signs, physical examination) were performed at pre-specified time points. Vital signs, the Clinician Administered Dissociative States Scale (CADSS; Bremner, “Measurement of dissociative states with the clinician-administered dissociative states scale (CADSS)”, J. Traumatic Stress, 1998, 11(1):125-136), and the 4-item positive symptom subscale from the Brief Psychiatric Rating Scale (BPRS; Overall, “The Brief Psychiatric Rating Scale. Psychological Reports”, 1962, 10:799-812) were assessed pre-dose, at 40 minutes, and 2 hours post-dose.
Safety data were analyzed in Period 1, Period 2, double-blind, and open-label data sets, for all subjects receiving at least 1 dose of study medication.

## CN[C@]1(c2ccccc2Cl)CCCCC1=O [esketamine, (S)-2-(2-chlorophenyl)-2-(methylamino)cyclohexanone]
Esketamine 28 mg, N = 19
  Dissociation, number of participants: 0
  Dissociative disorder, % of participants: (11) %
  Dissociative disorder, number of participants: 2
  Dizziness, % of participants: (21) %
  Dizziness, number of participants: 4
  Dysgeusia, % of participants: (11) %
  Dysgeusia, number of participants: 2
  Feeling abnormal, % of participants: (11) %
  Feeling abnormal, number of participants: 2
  Headache, % of participants: (32) %
  Headache, number of participants: 6
  Hypersomnia, % of participants: (11) %
  Hypersomnia, number of participants: 2
  Hypertension, number of participants: 0
  Hypoesthesia oral, % of participants: (5) %
  Hypoesthesia oral, number of participants: 1
  Insomnia, number of participants: 0
  Nasal discomfort, number of participants: 0
  Nausea, % of participants: (11) %
  Nausea, number of participants: 2
  Oropharyngeal pain, number of participants: 0
  Polyuria, number of participants: 0
  Sedation, % of participants: (5) %
  Sedation, number of participants: 1
  Throat irritation, % of participants: (5) %
  Throat irritation, number of participants: 1
  Total with events, % of participants: (58) %
  Total with events, number of participants: 11
  Tunnel vision, number of participants: 0
  Vertigo, % of participants: (11) %
  Vertigo, number of participants: 2
  Vision blurred, number of participants: 0
Esketamine 56 mg, N = 20
  Dissociation, % of participants: (35) %
  Dissociation, number of participants: 7
  Dissociative disorder, % of participants: (5) %
  Dissociative disorder, number of participants: 1
  Dizziness, % of participants: (40) %
  Dizziness, number of participants: 8
  Dysgeusia, % of participants: (15) %
  Dysgeusia, number of participants: 3
  Feeling abnormal, % of participants: (5) %
  Feeling abnormal, number of participants: 1
  Headache, % of participants: (15) %
  Headache, number of participants: 3
  Hypersomnia, number of participants: 0
  Hypertension, % of participants: (10) %
  Hypertension, number of participants: 2
  Hypoesthesia oral, % of participants: (20) %
  Hypoesthesia oral, number of participants: 4
  Insomnia, % of participants: (10) %
  Insomnia, number of participants: 2
  Nasal discomfort, % of participants: (10) %
  Nasal discomfort, number of participants: 2
  Nausea, % of participants: (20) %
  Nausea, number of participants: 4
  Oropharyngeal pain, % of participants: (5) %
  Oropharyngeal pain, number of participants: 1
  Polyuria, % of participants: (10) %
  Polyuria, number of participants: 2
  Sedation, % of participants: (10) %
  Sedation, number of participants: 2
  Throat irritation, number of participants: 0
  Total with events, % of participants: (80) %
  Total with events, number of participants: 16
  Tunnel vision, number of participants: 0
  Vertigo, % of participants: (5) %
  Vertigo, number of participants: 1
  Vision blurred, number of participants: 0
Esketamine 84 mg, N = 17
  Dissociation, % of participants: (24) %
  Dissociation, number of participants: 4
  Dissociative disorder, % of participants: (24) %
  Dissociative disorder, number of participants: 4
  Dizziness, % of participants: (47) %
  Dizziness, number of participants: 8
  Dysgeusia, % of participants: (29) %
  Dysgeusia, number of participants: 5
  Feeling abnormal, % of participants: (6) %
  Feeling abnormal, number of participants: 1
  Headache, % of participants: (18) %
  Headache, number of participants: 3
  Hypersomnia, number of participants: 0
  Hypertension, % of participants: (6) %
  Hypertension, number of participants: 1
  Hypoesthesia oral, % of participants: (12) %
  Hypoesthesia oral, number of participants: 2
  Insomnia, number of participants: 0
  Nasal discomfort, % of participants: (6) %
  Nasal discomfort, number of participants: 1
  Nausea, % of participants: (24) %
  Nausea, number of participants: 4
  Oropharyngeal pain, % of participants: (12) %
  Oropharyngeal pain, number of participants: 2
  Polyuria, number of participants: 0
  Sedation, % of participants: (6) %
  Sedation, number of participants: 1
  Throat irritation, % of participants: (12) %
  Throat irritation, number of participants: 2
  Total with events, % of participants: (88) %
  Total with events, number of participants: 15
  Tunnel vision, % of participants: (12) %
  Tunnel vision, number of participants: 2
  Vertigo, % of participants: (6) %
  Vertigo, number of participants: 1
  Vision blurred, % of participants: (12) %
  Vision blurred, number of participants: 2
Esketamine Total, N = 56
  Dissociation, % of participants: (20) %
  Dissociation, number of participants: 11
  Dissociative disorder, % of participants: (13) %
  Dissociative disorder, number of participants: 7
  Dizziness, % of participants: (36) %
  Dizziness, number of participants: 20
  Dysgeusia, % of participants: (18) %
  Dysgeusia, number of participants: 10
  Feeling abnormal, % of participants: (7) %
  Feeling abnormal, number of participants: 4
  Headache, % of participants: (21) %
  Headache, number of participants: 12
  Hypersomnia, % of participants: (4) %
  Hypersomnia, number of participants: 2
  Hypertension, % of participants: (5) %
  Hypertension, number of participants: 3
  Hypoesthesia oral, % of participants: (13) %
  Hypoesthesia oral, number of participants: 7
  Insomnia, % of participants: (4) %
  Insomnia, number of participants: 2
  Nasal discomfort, % of participants: (5) %
  Nasal discomfort, number of participants: 3
  Nausea, % of participants: (18) %
  Nausea, number of participants: 10
  Oropharyngeal pain, % of participants: (5) %
  Oropharyngeal pain, number of participants: 3
  Polyuria, % of participants: (4) %
  Polyuria, number of participants: 2
  Sedation, % of participants: (7) %
  Sedation, number of participants: 4
  Throat irritation, % of participants: (5) %
  Throat irritation, number of participants: 3
  Total with events, % of participants: (75) %
  Total with events, number of participants: 42
  Tunnel vision, % of participants: (4) %
  Tunnel vision, number of participants: 2
  Vertigo, % of participants: (7) %
  Vertigo, number of participants: 4
  Vision blurred, % of participants: (4) %
  Vision blurred, number of participants: 2
Phase 2, double-blind phase
  Participants with adverse events leading to discontinuation of study drug: 5%
Phase 2, open-label phase
  Adverse event dizziness, % of participants: 38.6%
  Adverse event dysgeusia, % of participants: 22.8%
  Adverse event headache, % of participants: 14.0%
  Adverse event nausea, % of participants: 15.8%
  Adverse event sedation, % of participants: 10.5%
  Participants reporting transient dissociative symptoms: 24.6%
  Participants with adverse events leading to discontinuation of study drug: 2%
